# Values quoted from earlier work, collected in US10064816B2, “Treatment of sexual dysfunction” (ReJoy, priority 2015, dated 2018).
# Test system: arrector pili muscle
# Details: 1% w/v, iontophoresis
smiles,measurement,value
CNC[C@H](O)c1cccc(O)c1 [phenylephrine],piloerection on the forearm,can activate the piloerection
